The values below are quoted from earlier work in US11103501B2, “Dry powder formulation of azole derivative for inhalation” (priority 2011, dated 2021).

A word on the solubility: it is the dissolved amount per volume that the medium holds.

A value given as a limit tells only on which side of the number the result lay.

Turning to `CCC(C)n1ncn(-c2ccc(N3CCN(c4ccc(OCC5COC(Cn6cncn6)(c6ccc(Cl)cc6Cl)O5)cc4)CC3)cc2)c1=O` (centres unmarked) [itraconazole], the water solubility was below 1 µg/mL. Moreover, the solubility (pII 7) was below 1 µg/mL.
